The values below come from US20150045410A1, “METHOD OF REGULATING CFTR EXPRESSION AND PROCESSING” (University of Iowa Research Foundation, priority 2012, published 2015).

The test system of data set [1] is CFTR-ΔF508. Put plainly: CFTR-mediated Cl^− transport (transepithelial current) in primary CF airway epithelia. In kind it is cell-based, human. To be noted: multiple donors, oligonucleotide transfection, F&I then GlyH-101. As to the method:
FIG. 27. […] Change in It following F&I+PG-01 treatment of primary CF airway epithelial cells (homozygous for ΔF508-CFTR) with indicated reagents. N=1 donor. PG-01 is a potentiator used along with F&I to increase Cl^− transport.
Airway epithelia from human trachea and primary bronchus removed from organs donated for research were cultured at the air-liquid interface (ALI) (Karp, P. H. et al. An in vitro model of differentiated human airway epithelia. Methods for establishing primary cultures. Methods Mol. Biol. 188, 115-137 (2002)). These studies were approved by the Institutional Review Board of the University of Iowa. Briefly, airway epithelial cells were dissociated from native tissue by pronase enzyme digestion. […]
Transepithelial Cl^− current measurements were made in Ussing chambers about 2 weeks post-seeding (Itani, 0. A. et al. Human cystic fibrosis airway epithelia have reduced Cl− conductance but not increased Na+ conductance. Proc. Natl. Acad. Sci. USA 108, 10260-10265 (2011)). […] Transepithelial Cl^− current was measured under short-circuit current conditions. […] After measuring baseline current, the transepithelial current (It) response to sequential apical addition of 100 μM amiloride (Amil), 100 μM 4,4′-diisothiocyanoto-stilbene-2,2′-disulfonic acid (DIDS), 4.8 mM [Cl^−], 10 μM forskolin and 100 μM 3-isobutyl-1-methylxanthine (IBMX), and 100 μM GlyH-101 was measured. […]

Data set [2] deals with CFTR-ΔF508. Kind of data set: Immunoblot (HA antibody) in HeLa cells stably expressing HA-tagged CFTR-ΔF508. In kind it is cell-based. The following applies: CFTR-ΔF508-3HA. The procedure:
(Wang, X. et al. Hsp90 cochaperone Aha1 downregulation rescues misfolding of CFTR in cystic fibrosis. Cell 127, 803-815 (2006)): Cell lines or primary cultures were washed with PBS and lysed in freshly prepared lysis buffer (1% Triton, 25 mM Tris pH 7.4, 150 mM NaCl, protease inhibitors (cOmplete™, mini, EDTA-free, Roche)) for 30 min at 4° C. The lysates were centrifuged at 14,000 rpm for 20 min at 4° C., and the supernatant quantified by BCA Protein Assay kit (Pierce). 20 μg (Calu-3) and 50 μg (human primary airway epithelial cultures, HeLa, HEK293T) of protein per lane was separated on a 7% SDS-PAGE gel for western blot analysis. Antibodies were procured for SIN3A (1:1000, R&D Systems), CTCF (1:500, Cell Signaling Technology), CFTR (R-769 (1:2000, CFFT), MM13-4 (1:1000, Millipore), M3A7 (1:500, Millipore), 24-1 (1:1000, R&D Systems)), hemagglutinin (1; 1000, Covance) and α-tubulin (1:10000, Sigma). Protein abundance was quantified by densitometry using an Alphalnnotech Fluorochem Imager (Alphalnnotech). For CFTR, band B and C were quantified separately. All bands were normalized to α-tubulin. Experiments were performed in triplicates per donor and mean and standard error of the mean determined using unpaired two-tailed t-test. […] If signal was detected, the stripping procedure was repeated till no signal was observed. […]

Regarding “miR-138 mimic: synthetic modified RNA duplex, sense SEQ ID NO: 4, antisense SEQ ID NO: 5, showing miR-138-like activity”, the “CFTR-mediated Cl^− transport” value in the data set with CFTR-ΔF508 [1] was “restored”. Further, the “abundance of the mature, fully glycosylated CFTR band C” value in the data set with CFTR-ΔF508 [2] is reported as “increased”.
The like results for “SIN3A DsiRNA: Dicer-substrate siRNA against SIN3A, sense SEQ ID NO: 6, antisense SEQ ID NO: 7 (sense GCGAUACAUGAAUUCAGAUACUACC; antisense GGUAGUAUCUGAAUUCAUGUAUCGCUC; chemistry not given here)” were, in that order, “restored” and “increased”.
